SMILES strings stand for the structures. Where two headings read alike, the source gives them in different places.

In this experiment the target is T1, F508delCFTR (Homo sapiens, UniProt P13569, DEL508-508).
T1 construct: expressed in transfected cells; host or cells: CFBE41o- human lung derived epithelial cells (CFBE41o-F508delCFTR-HRP), doxycycline-inducible
Description: Cell Surface Expression-Horse Radish Peroxidase (CSE-HRP) Assay.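 On EC50 (with co-corrector): co-corrector chromenyl benzoic acid corrector at 2 or 3 µM.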 It counts as cell-based. The note with it: for Maximum % activity (with co-corrector) / Emax: maximum at any tested concentration; for Emax: read-out: Maximum % activity (without co-corrector). The procedure: A cellular assay for measuring the F508delCFTR cell surface expression after correction with test compounds either without or with a co-corrector (2 μM of 3-[(2R,4R)-4-({[1-(2,2-difluoro-1,3-benzodioxol-5-yl)cyclopropyl]carbonyl}amino)-7-methoxy-3,4-dihydro-2H-chromen-2-yl]benzoic acid), was developed in human lung derived epithelial cell line (CFBE4lo−) (Veit G et al, (2012) Mol Biol Cell. 23(21): 4188-4202). The development was achieved by expressing the F508delCFTR mutation along with a horseradish peroxidase (HRP) in the fourth exofacial loop, and then measuring the HRP activity using luminescence readout from these cells, CFBE410-F508delCFTR-HRP, that were incubated overnight with the test corrector compounds, either without or with the co-corrector. For this primary assay, the CFBE410-F508delCFTR-HRP cells were plated in 384-well plates (Greiner Bio-one; Cat 781080) at 4,000 cells/well along with 0.5 μg/mL doxycycline to induce the F508delCFTR-HRP expression and further incubated at 37° C., 5% CO2 for 68-72 hours. The test compounds were then added either without or with a co-corrector at the required concentrations and further incubated for 18-24 hours at 33° C. The highest concentration tested was 20 μM or 30 μM (GI-1 to GIII-36) with an 8-point concentration response curve using a 3-fold dilution in both the test compound without or with the co-corrector. Three replicate plates were run to determine one EC50. All plates contained negative controls (dimethyl sulfoxide, DMSO) and positive control (2 μM or 3 μM (GI-1 to GIII-36) of 3-[(2R,4R)-4-({[1-(2,2-difluoro-1,3-benzodioxol-5-yl)cyclopropyl]carbonyl}amino)-7-methoxy-3,4-dihydro-2H-chromen-2-yl]benzoic acid) as well as on-plate concentration response of the positive control. Post incubation, the plates were washed 5× times with Dulbecco's phosphate buffered saline (DPBS), followed by the addition of the HRP substrate, luminol (50 4), and measuring the HRP activity using luminescence readout on EnVision® Multilabel Plate Reader (Perkin Elmer; product number 2104-0010). The raw counts from the experiment were analyzed using Accelrys® Assay Explorer v3.3.
Z′ greater than 0.5 was used as passing quality control criteria for the plates.
The Z′ is defined as: 1−[3*SDPositve Control+3*SDNegative Control/Absolute(MeanPositive Control−MeanNegative Control)] wherein “SD” is standard deviation.
The % activity measured at each of the 8 test concentrations of the test compound added either without or with a co-corrector (2 μM or 3 μM (GI-1 to GIII-36) of 3-[(2R,4R)-4-({[1-(2,2-difluoro-1,3-benzodioxol-5-yl)cyclopropyl]carbonyl}amino)-7-methoxy-3,4-dihydro-2H-chromen-2-yl]benzoic acid) was normalized to the on-plate positive control using the following formulae: % activity (Test compound without co-corrector)=[(test compound without co-corrector response DMSO response)/(positive control response DMSO response)]*100 % activity (Test compound with co-corrector)=[(test compound with co-corrector response DMSO response)/(positive control response DMSO response)]*100
The maximum % activity achieved for the test compound either without or with a co-corrector at any tested concentration is presented in Table 6 along with the respective EC50's calculated using the following general sigmoidal curve with variable Hill slope equation (described as Model 42 in the Accelrys® Assay Explorer v3.3 software): y=(a−d)/(1+(x/c)b)+d
General sigmoidal curve with concentration, response, top, bottom, EC50 and Hill slope. This model describes a sigmoidal curve with an adjustable baseline, a. The equation can be used to fit curves where response is either increasing or decreasing with respect to the independent variable, “x”.
“x” is a concentration of drug under test.
“a” is the maximum response, and “d” is the minimum response
“c” is the inflection point (EGO for the curve. That is, “y” is halfway between the lower and upper asymptotes when x=c.
“b” is the slope-factor or Hill coefficient. […]

The mark [1] stands for this setting: test compound alone, without co-corrector, read-out: EC50 (without co-corrector).
The mark [2] stands for this setting: with co-corrector, read-out: EC50 (with co-corrector).
Setting [3] is: test compound with co-corrector.
[4] abbreviates: test compound with co-corrector, read-out: EC50 (with co-corrector).
The mark [5] stands for this setting: test compound without co-corrector.
The mark [6] stands for this setting: test compound without co-corrector, read-out: EC50 (without co-corrector).

T1 sequence (P13569 with tags, fused parts or gaps DEL508-508): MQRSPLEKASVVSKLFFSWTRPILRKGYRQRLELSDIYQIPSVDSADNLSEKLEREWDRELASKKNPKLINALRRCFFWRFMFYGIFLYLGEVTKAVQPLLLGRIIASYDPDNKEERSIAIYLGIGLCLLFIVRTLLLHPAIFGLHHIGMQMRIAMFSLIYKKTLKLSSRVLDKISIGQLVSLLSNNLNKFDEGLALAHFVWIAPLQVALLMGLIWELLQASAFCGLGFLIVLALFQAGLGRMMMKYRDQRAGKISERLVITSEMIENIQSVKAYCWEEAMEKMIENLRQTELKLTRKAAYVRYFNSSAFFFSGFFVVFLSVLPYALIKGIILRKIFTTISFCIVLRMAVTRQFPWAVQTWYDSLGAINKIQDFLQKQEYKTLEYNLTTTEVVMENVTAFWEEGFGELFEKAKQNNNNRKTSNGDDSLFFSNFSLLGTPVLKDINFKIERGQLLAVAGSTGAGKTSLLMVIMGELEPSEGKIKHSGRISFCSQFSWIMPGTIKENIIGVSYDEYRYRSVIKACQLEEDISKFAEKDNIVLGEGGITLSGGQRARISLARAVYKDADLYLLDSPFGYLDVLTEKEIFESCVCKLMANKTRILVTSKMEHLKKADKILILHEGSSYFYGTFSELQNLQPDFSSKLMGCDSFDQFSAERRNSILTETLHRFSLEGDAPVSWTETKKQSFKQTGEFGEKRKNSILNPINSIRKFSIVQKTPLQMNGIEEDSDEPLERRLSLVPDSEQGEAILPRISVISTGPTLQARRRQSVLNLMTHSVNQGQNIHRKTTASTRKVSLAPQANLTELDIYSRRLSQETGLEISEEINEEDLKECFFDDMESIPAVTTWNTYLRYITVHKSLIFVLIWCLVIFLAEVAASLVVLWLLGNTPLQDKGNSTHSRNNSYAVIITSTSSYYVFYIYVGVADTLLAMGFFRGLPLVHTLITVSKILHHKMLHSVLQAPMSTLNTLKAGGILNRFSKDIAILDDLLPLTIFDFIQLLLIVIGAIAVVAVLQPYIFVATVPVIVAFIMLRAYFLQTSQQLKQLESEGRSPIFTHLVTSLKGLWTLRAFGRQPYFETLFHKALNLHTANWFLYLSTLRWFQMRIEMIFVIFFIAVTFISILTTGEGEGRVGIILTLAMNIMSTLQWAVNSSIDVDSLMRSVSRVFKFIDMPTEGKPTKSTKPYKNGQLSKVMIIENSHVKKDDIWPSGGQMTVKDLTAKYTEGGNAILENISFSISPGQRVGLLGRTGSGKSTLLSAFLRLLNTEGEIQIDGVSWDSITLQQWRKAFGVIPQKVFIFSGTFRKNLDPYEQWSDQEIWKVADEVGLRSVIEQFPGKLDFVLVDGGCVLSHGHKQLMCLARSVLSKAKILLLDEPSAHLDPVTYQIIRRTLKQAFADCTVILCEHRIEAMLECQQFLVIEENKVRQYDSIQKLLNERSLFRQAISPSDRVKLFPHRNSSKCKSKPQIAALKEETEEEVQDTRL

Consider `COc1ccc(C2CCC2)cc1C1(C(=O)NS(=O)(=O)c2cccc3ncn(C)c23)CCC1` [Example I-24, 1-(5-cyclobutyl-2-methoxyphenyl)-N-(1-methyl-1H-benzimidazole-7-sulfonyl)cyclobutane-1-carboxamide], for which the EC50 – broadly, the concentration at which the effect is half-maximal – by setting is: under setting [1], under 3 µM; under setting [2], under 3 µM. The “Maximum % activity (with co-corrector)” value (with co-corrector) is given as “+++ (≥350)”. For the same compound, the Emax (without co-corrector) is over 150%.

`O=C(NS(=O)(=O)c1ccccc1)C1(c2ccc(F)cc2)CC1` [Example III-31, N-(benzenesulfonyl)-1-(4-fluorophenyl)cyclopropane-1-carboxamide]: the concentration giving a half-maximal response (EC50) reads like this: under setting [1], over 10 µM; under setting [2], 3 to 10 µM. Besides, the “Maximum % activity (with co-corrector)” value (with co-corrector) was “++ (≥150 and <350)”. The Emax (without co-corrector) is under 50%.

On to `COc1ccc(C2CCC2)cc1C1(C(=O)NS(=O)(=O)c2cccc3c2ccn3C)CC1` [Example I-58, 1-(5-cyclobutyl-2-methoxyphenyl)-N-(1-methyl-1H-indole-4-sulfonyl)cyclopropane-1-carboxamide], for which the EC50 under setting [1] fell in the range of 3 to 10 µM and the 50% effective concentration (EC50) under setting [2] was under 3 µM. Also, for the setting “with co-corrector”, the “Maximum % activity (with co-corrector)” value is “+++ (≥350)”. Also, the Emax (without co-corrector) was over 150%.

Turning to `CC(C)Oc1ncc(N2CCC2)cc1C1(C(=O)NS(=O)(=O)c2cccc3ncccc23)CC1` [Example GI-83, 1-{5-(azetidin-1-yl)-2-[(propan-2-yl)oxy]pyridin-3-yl}-N-(quinoline-5-sulfonyl)cyclopropane-1-carboxamide], the “Maximum % activity (with co-corrector)” value under setting [3] is recorded as “+++ (≥350)”. Moreover, the EC50 reads like this: under setting [4], under 3 µM; under setting [6], 3 to 10 µM. For the same compound, the Emax under setting [5] is over 150%.

With `CC(C)c1nc(C(F)(F)F)ccc1C1(C(=O)NS(=O)(=O)c2cccc3c2CCCN3)CC1` [Example GI-9, 1-[2-(propan-2-yl)-6-(trifluoromethyl)pyridin-3-yl]-N-(1,2,3,4-tetrahydroquinoline-5-sulfonyl)cyclopropane-1-carboxamide], the EC50 under setting [1] is under 3 µM and the EC50 under setting [2] is under 3 µM. Where the note is “with co-corrector”, the “Maximum % activity (with co-corrector)” value is listed as “+++ (≥350)”. The Emax (without co-corrector) is over 150%.

`CCOC(C)(C)c1ccc(OC(F)F)c(C2(C(=O)NS(=O)(=O)c3cccc4nc(C)ccc34)CC2)c1` [II-107]: the EC50 was under 3 µM under setting [1] and under 3 µM under setting [2]. Where the note is “with co-corrector”, the “Maximum % activity (with co-corrector)” value is recorded as “+++ (≥350)”. Moreover, the Emax (without co-corrector) was over 150%.

Regarding `CC(C)Oc1cnc(C2CCC2)cc1C1(C(=O)NS(=O)(=O)c2cccc3[nH]ccc23)CC1` [Example GI-27, 1-{2-cyclobutyl-5-[(propan-2-yl)oxy]pyridin-4-yl}-N-(1H-indole-4-sulfonyl)cyclopropane-1-carboxamide], the EC50 under setting [1] was in the range of 3 to 10 µM and the EC50 under setting [2] was under 3 µM. Also, the “Maximum % activity (with co-corrector)” value (with co-corrector) was “+++ (≥350)”. In addition, the Emax (without co-corrector) was over 150%.

In the case of `COc1ccc(Br)cc1C1(C(=O)NS(=O)(=O)c2cccc3c2CCCN3)CCC1` [Example I-9, 1-(5-bromo-2-methoxyphenyl)-N-(1,2,3,4-tetrahydroquinoline-5-sulfonyl)cyclobutane-1-carboxamide], the EC50 reads like this: under setting [1], under 3 µM; under setting [2], under 3 µM. Moreover, the “Maximum % activity (with co-corrector)” value (with co-corrector) is recorded as “+++ (≥350)”. For the same compound, the Emax (without co-corrector) was over 150%.

Consider `CCc1cnc(OCC2CC2)c(C2(C(=O)NS(=O)(=O)c3cccc4ncccc34)CC2)c1` [Example GI-106, 1-[2-(cyclopropylmethoxy)-5-ethylpyridin-3-yl]-N-(quinoline-5-sulfonyl)cyclopropane-1-carboxamide], for which the “Maximum % activity (with co-corrector)” value under setting [3] is “+++ (≥350)”. The EC50 reads like this: under setting [4], under 3 µM; under setting [6], under 3 µM. Further, under setting [5], the Emax was over 150%.

Regarding `COc1ccc(Br)cc1C1(C(=O)NS(=O)(=O)c2cccc3ccccc23)CC1` [Example I-1, 1-(5-bromo-2-methoxyphenyl)-N-(naphthalene-1-sulfonyl)cyclopropane-1-carboxamide], the EC50 reads like this: under setting [1], under 3 µM; under setting [2], under 3 µM. The “Maximum % activity (with co-corrector)” value (with co-corrector) is listed as “+++ (≥350)”. The Emax (without co-corrector) was over 150%.

Source of the values: patent US10829473B2, “Modulators of the cystic fibrosis transmembrane conductance regulator protein and methods of use” (AbbVie Overseas S.Á.R.L., priority 2017, dated 2020).
